Measurements published in patent US6737383B1, “Herbicidal oxadiazolidines” (priority 1999, dated 2004).

Tests used:
[1] = system: pigweed; assay: Test B pre/postemergence pigweed; format: in vivo, Amaranthus retroflexus
Method in brief: (§1)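 Herbicidal effect was estimated by eye on a ten-point control scale after plants spent twelve to sixteen days in a greenhouse following soil or foliar treatment. Foliar sprays targeted plants at one to four leaves; all doses were formulated in a non-phytotoxic solvent with surfactant.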

[2] = system: smallflower flatsedge; assay: Test B flood test smallflower flatsedge; format: in vivo, Cyperus difformis
Method in brief: (§2)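 Each value is a visual injury score relative to controls, with 10 meaning complete control and 0 no effect. Evaluation took place twelve to sixteen days after the 2-leaf-stage plants were treated and kept in the greenhouse.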

[3] = system: bamyardgrass; assay: Test B flood test barnyardgrass; format: in vivo, Echinochloa crus-galli
Method in brief: as §2

[4] = system: soybean; assay: Test B pre/postemergence soybean; format: in vivo, Glycine max
Method in brief: as §1

[5] = system: giant foxtail; assay: Test B pre/postemergence giant foxtail; format: in vivo, Setaria faberii
Method in brief: as §1

[6] = system: cocklebur; assay: Test B pre/postemergence cocklebur; format: in vivo, Xanthium strumarium
Method in brief: as §1

[7] = system: rape; assay: Test B pre/postemergence rape; format: in vivo, Brassica napus
Method in brief: as §1

[8] = system: crabgrass; assay: Test B pre/postemergence crabgrass; format: in vivo, Digitaria sanguinalis
Method in brief: as §1

[9] = system: corn; assay: Test B pre/postemergence corn; format: in vivo, Zea mays
Method in brief: as §1

[10] = system: surinam grass; assay: Test B pre/postemergence surinam grass; format: in vivo, Brachiaria decumbens
Method in brief: as §1

[11] = system: sugar beet; assay: Test B pre/postemergence sugar beet; format: in vivo, Beta vulgaris
Method in brief: as §1

[12] = system: blackgrass; assay: Test B pre/postemergence blackgrass; format: in vivo, Alopecurus myosuroides
Method in brief: as §1

[13] = system: purple nutsedge; assay: Test B pre/postemergence purple nutsedge; format: in vivo, Cyperus rotundus
Method in brief: as §1

[14] = system: velvetleaf; assay: Test B pre/postemergence velvetleaf; format: in vivo, Abutilon theophrasti
Method in brief: as §1

[15] = system: wild oat; assay: Test B pre/postemergence wild oat; format: in vivo, Avena fatua
Method in brief: as §1

[16] = system: morningglory; assay: Test B pre/postemergence morningglory; format: in vivo, Ipomoea hederacea
Method in brief: as §1

[17] = Preemergence, Rate 62 g/ha, scale of 0 to 10 where 0 is no effect and 10 is complete control
[18] = Preemergence, Rate 250 g/ha, scale of 0 to 10 where 0 is no effect and 10 is complete control
[19] = Preemergence, Rate 500 g/ha, scale of 0 to 10 where 0 is no effect and 10 is complete control
[20] = Rate 62 g/ha, Postemergence, scale 0 to 10 (0 no effect, 10 complete control)
[21] = Rate 125 g/ha, Postemergence, scale of 0 to 10 where 0 is no effect and 10 is complete control
[22] = Rate 125 g/ha, Preemergence, scale of 0 to 10 where 0 is no effect and 10 is complete control
[23] = Rate 250 g/ha, Postemergence, scale of 0 to 10 where 0 is no effect and 10 is complete control
[24] = Rate 62 g/ha, headed Pre-emergence (flood test species), scale 0 to 10 (0 no effect, 10 complete control)
[25] = Rate 125 g/ha, Pre-emergence, flood test species, scale 0 to 10 where 0 is no effect and 10 is complete control
[26] = Rate 250 g/ha, Pre-emergence, flood-test species, scale 0 to 10, 0 is no effect, 10 is complete control
[27] = Rate 500 g/ha, Pre-emergence, flood test species, scale 0 to 10 (0 no effect, 10 complete control)
[28] = Rate 500 g/ha, Postemergence, scale 0 to 10, 0 no effect, 10 complete control

CC(C)N(C(=O)n1oc(=O)n(C[Si](C)(C)C)c1=O)c1ccc(F)cc1 [Compound 294]
1: Crabgrass plant response rating [8, 17]
0: Redroot pigweed plant response rating [1, 17] | Redroot pigweed plant response rating [1, 18] | Redroot pigweed plant response rating [1, 20] | Redroot pigweed plant response rating [1, 21] | Redroot pigweed plant response rating [1, 22] | Plant response rating, Redroot pigweed [1, 23] | S. Flatsedge plant response rating [2, 24] | S. Flatsedge plant response rating [2, 25] | S. Flatsedge plant response rating [2, 26] | Barnyardgrass plant response rating [3, 24] | Soybean plant response rating [4, 17] | Soybean plant response rating [4, 18] | Plant response rating, Soybean [4, 19] | Soybean plant response rating [4, 22] | Giant foxtail plant response rating [5, 20] | Giant foxtail plant response rating [5, 21] | Cocklebur plant response rating [6, 17] | Cocklebur plant response rating [6, 18] | Cocklebur plant response rating [6, 20] | Cocklebur plant response rating [6, 21] | Cocklebur plant response rating [6, 22] | Plant response rating, Cocklebur [6, 23] | Cocklebur plant response rating [6, 28] | Rape plant response rating [7, 17] | Rape plant response rating [7, 18] | Rape plant response rating [7, 20] | Rape plant response rating [7, 21] | Rape plant response rating [7, 22] | Crabgrass plant response rating [8, 20] | Crabgrass plant response rating [8, 21] | Corn plant response rating [9, 17] | Corn plant response rating [9, 18] | Corn plant response rating [9, 20] | Corn plant response rating [9, 21] | Corn plant response rating [9, 22] | Plant response rating, Corn [9, 23] | Corn plant response rating [9, 28] | B. signalgrass plant response rating [10, 17] | B. signalgrass plant response rating [10, 20] | B. signalgrass plant response rating [10, 21] | Plant response rating, B. signalgrass [10, 23] | B. signalgrass plant response rating [10, 28] | Sugarbeets plant response rating [11, 17] | Sugarbeets plant response rating [11, 18] | Sugarbeets plant response rating [11, 20] | Sugarbeets plant response rating [11, 21] | Sugarbeets plant response rating [11, 22] | Plant response rating, Sugarbeets [11, 23] | Blackgrass plant response rating [12, 17] | Blackgrass plant response rating [12, 20] | Blackgrass plant response rating [12, 21] | Nutsedge plant response rating [13, 17] | Nutsedge plant response rating [13, 18] | Plant response rating, Nutsedge [13, 19] | Nutsedge plant response rating [13, 20] | Nutsedge plant response rating [13, 21] | Nutsedge plant response rating [13, 22] | Plant response rating, Nutsedge [13, 23] | Velvetleaf plant response rating [14, 17] | Velvetleaf plant response rating [14, 20] | Velvetleaf plant response rating [14, 21] | Velvetleaf plant response rating [14, 22] | Plant response rating, Velvetleaf [14, 23] | Wild oats plant response rating [15, 17] | Wild oats plant response rating [15, 20] | Wild oats plant response rating [15, 21] | Plant response rating, Wild oats [15, 23] | Morningglory plant response rating [16, 17] | Morningglory plant response rating [16, 18] | Plant response rating, Morningglory [16, 19] | Morningglory plant response rating [16, 22]
8: Blackgrass plant response rating [12, 28] | Plant response rating, Wild oats [15, 19]
7: Giant foxtail plant response rating [5, 17] | B. signalgrass plant response rating [10, 18] | B. signalgrass plant response rating [10, 22] | Plant response rating, Blackgrass [12, 23]
2: Plant response rating, Redroot pigweed [1, 19] | Soybean plant response rating [4, 20] | Plant response rating, Giant foxtail [5, 23] | Plant response rating, Rape [7, 23] | Plant response rating, Crabgrass [8, 23] | Plant response rating, Corn [9, 19] | Plant response rating, Sugarbeets [11, 19]
3: Barnyardgrass plant response rating [3, 25] | Soybean plant response rating [4, 21] | Plant response rating, Rape [7, 19] | Blackgrass plant response rating [12, 22] | Velvetleaf plant response rating [14, 18] | Wild oats plant response rating [15, 18]
6: Blackgrass plant response rating [12, 18] | Morningglory plant response rating [16, 20] | Morningglory plant response rating [16, 21]
10: Giant foxtail plant response rating [5, 18] | Plant response rating, Giant foxtail [5, 19] | Plant response rating, Crabgrass [8, 19] | Plant response rating, Blackgrass [12, 19]
9: Barnyardgrass plant response rating [3, 26] | Barnyardgrass plant response rating [3, 27] | Giant foxtail plant response rating [5, 22] | Crabgrass plant response rating [8, 18] | Crabgrass plant response rating [8, 22] | Plant response rating, B. signalgrass [10, 19] | Plant response rating, Morningglory [16, 23]
4: S. Flatsedge plant response rating [2, 27] | Plant response rating, Soybean [4, 23] | Plant response rating, Velvetleaf [14, 19]
